Values quoted from earlier work as cited in patent US20240285546A1, “TRANSDERMAL THERAPEUTIC SYSTEM CONTAINING AGOMELATINE” (LTS LOHMANN Therapie-Systeme AG, priority 2019, published 2024).

How the values were obtained:
[1] = not given; remark: listed apart in the source

- Volume of distribution (in steady state): 35 L
- Oral absorption (oral agomelatine): > 80%
- Overall bioavailability (oral agomelatine): less than 5%
- Increase in agomelatine exposure (AUC and cmax) (patients with moderate hepatic impairment compared to healthy subjects): up to 140 fold
- Solubility in water [1]: poorly soluble
Structure (SMILES): COc1ccc2cccc(CCNC(C)=O)c2c1 [agomelatine, N-(2-(7-Methoxy-1-naphthyl)ethyl)acetamide]
